Test results from article PMC11941218, “Juglone-Bearing Thiopyrano[2,3-d]thiazoles Induce Apoptosis in Colorectal Adenocarcinoma Cells” (Cells, 2025).

Tests used:
[1] = tested on: DLD-1 colorectal adenocarcinoma cells; test: [^3H]-thymidine incorporation assay (DNA biosynthesis); assay type: cell-based; details: Homo sapiens; DLD-1, 24 h, M ± SD, n = 3
Description: (§1) The anti-proliferative potential of Les-6547 and Les-6557 was analyzed using a clonogenic assay and incorporation of radioactive [^3H]-thymidine into the DNA of colorectal adenocarcinoma HT-29 and DLD-1 cell lines after 24 h of incubation with various concentrations of the tested agents.
(§2) Next, we examined the effects of the tested compounds on the proliferative activity of human colorectal adenocarcinoma cells by assessing their ability to influence DNA biosynthesis using the thymidine incorporation assay (Figure 6, Table 8). Les-6547 decreased DNA biosynthesis in DLD-1 cells to 50% at a concentration of 2.19 ± 0.39 µM.

[2] = tested on: HT-29 colorectal adenocarcinoma cells; test: as above; assay type: cell-based; details: Homo sapiens; HT-29, 24 h, M ± SD, n = 3
Description: as §1, §2

[3] = tested on: HT-29 colorectal adenocarcinoma cells; test: Intracellular total ROS activity assay (flow cytometry); assay type: cell-based, human; details: HT-29, 24 h; control 3.8%
Description: Total reactive oxygen species (ROS) activity was assessed using an Intracellular Total ROS Activity Assay Kit. Following 24 h incubation with studied derivatives, HT-29 cells were prepared for analysis with the flow cytometer according to the protocol detailed in the literature. The cells were washed twice with cold PBS, followed by the addition of the assay buffer provided in the kit. The cells, at a concentration of 1 × 10⁶ cells/mL, were then exposed to 10 µL of Total ROS Green reagent and incubated for one hour at 37 °C in a CO2 incubator. After the incubation period, the cells were rinsed with the assay buffer. Finally, the cells were resuspended in 500 µL of assay buffer and analyzed using a BD FACSCanto II flow cytometer in conjunction with FACSDiva 6.1.3 software (both BD Biosciences Systems, San Jose, CA, USA). The BD Cytometer Setup and Tracking Beads (BD Biosciences, San Diego, CA, USA) were used for calibration.

[4] = tested on: HaCaT (human keratinocytes); test: MTT assay; assay type: cell-based; details: 72 h, M ± SD, n = 3
Description: (§3) DLD-1, HaCaT, and Balb/c 3T3 cells were maintained in DMEM, while HT-29 cells were grown in McCoy’s 5A medium with 10% FBS and 1% penicillin/streptomycin. All cell lines were incubated at 37 °C in a humidified atmosphere with 5% CO2. After detaching the cells with trypsin, they were quantified using a Scepter 3.0 automated cell counter (Millipore, Burlington, MA, USA).
(§4) The metabolic activity of cells exposed to the tested derivatives, doxorubicin, and DMSO, was assessed using an MTT assay according to the manufacturer’s protocol (Sigma-Aldrich, St. Louis, MO, USA). Adherent cells were seeded into 96-well plates (5000–10,000 cells in 100 µL of growth medium per well) and allowed to adhere overnight before treatment. For lymphocytes, activation with phytohemagglutinin-L (1 µg/mL) was performed for 24 h, after which they were seeded in 96-well plates at a density of 100,000 cells/well in RPMI-1640 medium supplemented with 20% FBS. The test substances, including Les-6547, Les-6557, and doxorubicin, were added to 100 µL of culture medium to achieve final concentrations of 0 µM, 0.1 µM, 1 µM, 2.5 µM, 10 µM, and 100 µM for all compounds, and the cells were further incubated for 24, 48, or 72 h. DMSO-treated cells served as the control. Then, 20 µL of MTT solution (5 mg/mL) was added and incubated for 2–4 h to allow formazan crystal formation. The formazan crystals were then solubilized by adding DMSO. The absorbance of formazan was measured at 570 nm using a ThermoScientific Evolution 201 UV-VIS spectrophotometer (ThermoFisher Scientific, Waltham, MA, USA). The control condition with 0.5% DMSO was considered 100% viability. The IC50 values for the compounds were determined using GraphPad Prism 8 and 9 software (GraphPad Software, Boston, MA, USA).

[5] = tested on: Balb/c 3T3 (mouse fibroblasts); test: MTT assay; assay type: cell-based; details: BALB/c3T3, Balb/c 3T3, MTT, 72 h, M ± SD, n = 3
Description: as §3, §4

[6] = tested on: HT-29 colorectal adenocarcinoma cells; test: MTT assay; assay type: cell-based; details: Homo sapiens
Description: as §3, §4

Human blood lymphocytes = test: MTT assay; assay type: cell-based; details: for IC50: Lymphocyte, human blood lymphocytes, 72 h, M ± SD, n = 3; for decrease of viability compared to control cells: lymphocytes from a healthy donor, 100 µM
Description: Lymphocytes from human peripheral blood were isolated with sodium heparin (10 U/mL) as an anticoagulant. Isolation was performed through a density gradient method with the Gradisol G, following a modified procedure. Peripheral blood was mixed with Gradisol G in equal proportions (1:1) and centrifuged at 400× g for 30 min at room temperature. The cells were collected, washed in phosphate-buffered saline (PBS), and treated with a hypotonic solution to remove residual erythrocytes. Lymphocytes were activated by phytohemagglutinin-L (1 µg/mL) and cultured in RPMI-1640 medium supplemented with 20% fetal bovine serum under controlled conditions of 95% air and 5% CO2 [27].
as §4

[7] = tested on: DLD-1 colorectal adenocarcinoma cells; test: Colony forming (clonogenic) assay; assay type: cell-based, human; details: for inhibition of colony formation: DLD-1, 2.5 µM; for inhibition at 1 µM / IC50: Homo sapiens; for inhibition at 1 µM: DLD-1, 1 µM, read-out: inhibition of colony formation; for IC50: DLD-1, 72 h treatment, 14 days of incubation, M ± SD, n = 3
Description: (§5) For colony forming assay, HT-29 and DLD-1 cells were seeded in 12-well plates at a density of 500 cells in 2 mL of growth medium per well. After overnight incubation, the cells were exposed to the compounds Les-6547, Les-6557, and doxorubicin at concentrations ranging from 0.1 to 100 µM for 72 h. Following treatment, the medium was replaced with fresh medium without the compounds. After 14 days of culture, cells were rinsed with PBS and fixed with cold methanol for 10 min. Subsequently, the cells were stained with a 0.1% crystal violet solution for 10 min. After washing, the plates were allowed to dry at room temperature. Numbers of colonies were quantified using ImageJ software (version 1.5.4; National Institutes of Health, Bethesda, MD, USA). The effect of the compounds on the colony-forming capacity was calculated as a percentage of colonies relative to the untreated control group.

[8] = tested on: HT-29 colorectal adenocarcinoma cells; test: Colony forming (clonogenic) assay; assay type: cell-based, human; details: for inhibition of colony formation: HT-29, 2.5 µM; for inhibition at 1 µM / IC50: Homo sapiens; for inhibition at 1 µM: HT-29, 1 µM, read-out: inhibition of colony formation; for IC50: HT-29, 72 h treatment, 14 days of incubation, n = 3
Description: as §5

[9] = HT-29, MTT, 24, 48 and 72 h, read-out: IC50 (range over incubation times)
[10] = HT-29, MTT, 24 h, M ± SD, n = 3, read-out: IC50
[11] = HT-29, MTT, 48 h, M ± SD, n = 3, read-out: IC50
[12] = HT-29, MTT, 72 h, M ± SD, n = 3, read-out: IC50

## O=C1C2=C(C(=O)c3c(O)cccc31)C(c1cc(Cl)ccc1O)c1sc(=O)[nH]c1S2 (stereo not shown) [Les-6547]
[1]
  IC50: 2.19 ± 0.39 µM
[2]
  IC50: 2.21 ± 0.39 µM
[3]
  increase of the number of ROS-positive cells compared with the control cells: approximately 10 fold
[4]
  IC50: 89.64 ± 0.84 µM
[5]
  IC50: 31.7 ± 0.41 µM
[6]; [9]
  IC50: 4.29 to 5.72 µM
[6]; [10]
  IC50: 5.72 ± 0.41 µM
[6]; [11]
  IC50: 4.29 ± 0.5 µM
[6]; [12]
  IC50: 4.44 ± 0.35 µM
Human blood lymphocytes
  IC50: > 100 µM
  decrease of viability compared to control cells: 25%
[7]
  inhibition of colony formation: completely inhibited colony formation
  inhibition at 1 µM: 99%
  IC50: 0.4 ± 0.06 µM
[8]
  inhibition of colony formation: completely inhibited colony formation
  inhibition at 1 µM: 100%
  IC50: ~0.5 µM

## O=C1C2=C(C(=O)c3c(O)cccc31)C(c1ccc(Cl)cc1)c1sc(=O)[nH]c1S2 (stereo not shown) [Les-6557]
[1]
  IC50: 4.65 ± 0.02 µM
[2]
  IC50: 2.91 ± 0.38 µM
[3]
  increase of the number of ROS-positive cells compared with the control cells: approximately 10 fold
[4]
  IC50: 68.37 ± 0.57 µM
[5]
  IC50: 40.26 ± 0.35 µM
[6]; [9]
  IC50: 6.54 to 10.4 µM
[6]; [10]
  IC50: 10.4 ± 0.23 µM
[6]; [11]
  IC50: 6.54 ± 0.07 µM
[6]; [12]
  IC50: 9.78 ± 0.03 µM
Human blood lymphocytes
  IC50: > 100 µM
  decrease of viability compared to control cells: 25%
[7]
  inhibition of colony formation: completely inhibited colony formation
  inhibition at 1 µM: 99%
  IC50: 0.33 ± 0.05 µM
[8]
  inhibition of colony formation: completely inhibited colony formation
  inhibition at 1 µM: 100%
  IC50: ~0.5 µM
